Laboratory results from patent publication US20250161227A1, “PEGYLATED LIPIDS” (Acuitas Therapeutics, Inc., priority 2023, published 2025).

Tested on: reporter gene (firefly luciferase) expression in the liver
Assay: Luciferase expression in mouse liver following tail vein injection of mRNA lipid nanoparticles
Assay type: in vivo
Conditions: increasing concentration of compound I-5 in the lipid nanoparticle
Description: Lipid nanoparticles were formulated with short chain PEG lipid at various molar ratios as described in Formulation Example 1. Relative activity was determined by measuring luciferase expression in the mouse liver 4 hours following administration via tail vein injection.
Increasing concentration of compound I-5 reduced the overall expression of the reporter gene (firefly luciferase) in the liver (see, e.g., Table 4). Lipid nanoparticle systems that included compound I-5 at a concentration of 5 mol % reduced the amount of expression by ˜50% while lipid nanoparticle systems including compound I-5 at 10 mol % reduced to 20% of benchmark (lipid nanoparticle system with no compound I-5). […] However, 2.5 mol % compound I-5 changed the expression kinetic. […] Lipid nanoparticle systems with compound I-5 at a concentration of 2.5 mol % also provided a benefit of prolonged expression since at 16 hours the same system had ˜4-fold expression in comparison to the lipid nanoparticle system with no compound I-5.

CCCCCCCCCCCCCCN(CCCCCCCCCCCCCC)C(=O)CCC(=O)OCCOCCOCCOC [compound I-5]
overall expression of the reporter gene (firefly luciferase) in the liver: reduced
